In patent US8461107B2 (Merck Sharp & Dohme Corp., priority 2008, dated 2013):

Target: T1, HCV genotype 1b (BK) NS3 modified with a R155K mutation (Hepatitis C virus genotype 1b, UniProt P26663, R1181K)
T1 construct: HCV genotype 1b (BK) NS3 modified with a R155K mutation
Assay: HCV NS3 protease time-resolved fluorescence (TRF) assay, NS3 protease 1b R155K Ki activity
Assay type: biochemical
Details: HCV genotype 1b (BK) NS3 with R155K mutation; TRF peptide substrate 100 nM; Ki derived from IC50
Procedure: The HCV NS3 protease inhibitory activity of the present compounds may be tested using assays known in the art. One such assay is HCV NS3 protease time-resolved fluorescence (TRF) assay as described below and in International Patent Application Publication WO 2006/102087. Other examples of such assays are described in e.g., International Patent Application Publication WO 2005/046712.
A NS3 protease assay can be performed, for example, in a final volume of 100 μl assay buffer containing 50 mM HEPES, pH 7.5, 150 mM NaCl, 15% glycerol, 0.15% TRITON X-100, 10 mM DTT, and 0.1% PEG 8000. NS3 and NS4A protease is pre-incubated with various concentrations of inhibitors in DMSO for 30 minutes. The reaction is initiated by adding the TRF peptide substrate (final concentration 100 nM). NS3 mediated hydrolysis of the substrate is quenched after 1 hour at room temperature with 100 μl of 500 mM MES, pH 5.5. Product fluorescence is detected using either a VICTOR V2 or FUSION fluorophotometer (Perkin Elmer Life and Analytical Sciences) with excitation at 340 nm and emission at 615 nm with a 400 μs delay. Testing concentrations of different enzyme forms are selected to result in a signal to background ratio (S/B) of 10-30. IC50 values are derived using a standard four-parameter fit to the data. Ki values are derived from IC50 values using the following formula, IC50=Ki(1+[S]/KM), Eqn (1), where [S] is the concentration of substrate peptide in the reaction and KM is the Michaelis constant. See P. Gallinari et al., 38 BIOCHEM. 5620-32 (1999); P. Gallinari et al., 72 J. VIROL. 6758-69 (1998); M. Taliani et al., 240 ANAL. BIOCHEM. 60-67 (1996).
The HCV NS3 protease inhibitory activity was measured using the protease time-resolved fluorescence (TRF) assay as described below and in International Patent Application Publication WO 2006/102087. The assay was performed with HCV genotype 1b (BK) NS3 modified with a R155K mutation.
The assay was performed in a final volume of 100 μl in assay buffer containing 50 mM HEPES, pH 7.5, 150 mM NaCl, 15% glycerol, 0.15% TRITON X-100, 10 mM DTT, and 0.1% PEG 8000. NS3 and NS4A protease is pre-incubated with various concentrations of inhibitors in DMSO for 30 minutes. The reaction is initiated by adding the TRF peptide substrate (final concentration 100 nM). NS3 mediated hydrolysis of the substrate is quenched after 1 hour at room temperature with 100 μl of 500 mM MES, pH 5.5. Product fluorescence is detected using either a VICTOR V2 or FUSION fluorophotometer (Perkin Elmer Life and Analytical Sciences) with excitation at 340 nm and emission at 615 nm with a 400 μs delay. Testing concentrations of the enzyme containing the R155K mutation were selected to result in a signal to background ratio (S/B) of 10-30. IC50 values are derived using a standard four-parameter fit to the data. Ki values are derived from IC50 values using the following formula, IC50=Ki(1+[S]/KM), Eqn (1), where [S] is the concentration of substrate peptide in the reaction and KM is the Michaelis constant. See P. Gallinari et al., 38 BIOCHEM. 5620-32 (1999); P. Gallinari et al., 72 J. VIROL. 6758-69 (1998); M. Taliani et al., 240 ANAL. BIOCHEM. 60-67 (1996).

SMILES | Ki
CC[C@@H]1C[C@]1(NC(=O)[C@@H]1C[C@@H]2CN1C(=O)[C@H](C1CCCC1)NC(=O)O[C@@H]1CCC[C@H]1CC/C=C/Cn1c(nc3cc(C(F)(F)F)ccc3c1=O)O2)C(=O)NS(=O)(=O)C1CC1 [(3aR,7S,10S,12R,22E,25aS)-7-cyclopentyl-N-((1R,2R)-1-{[(cyclopropylsulfonyl)amino]carbonyl}-2-ethylcyclopropyl)-5,8,19-trioxo-16-(trifluoromethyl)-1,2,3,3a,5,6,7,8,11,12,21,24,25,25a-tetradecahydro-10H,19H-9,12-methanocyclopenta[18,19][1,10,3,6,12]dioxatriazacyclononadecino[11,12-b]quinazoline-10-carboxamide] | < 0.1 nM
CC[C@@H]1C[C@]1(NC(=O)[C@@H]1C[C@@H]2CN1C(=O)[C@H](C1CCCC1)NC(=O)O[C@@H]1CCC[C@H]1CC/C=C/Cn1c(nc3cc(-c4ccccc4)ccc3c1=O)O2)C(=O)NS(=O)(=O)C1CC1 [(3aR,7S,10S,12R,22E,25aS)-7-cyclopentyl-N-((1R,2R)-1-{[(cyclopropylsulfonyl)amino]carbonyl}-2-ethylcyclopropyl)-5,8,19-trioxo-16-phenyl-1,2,3,3a,5,6,7,8,11,12,21,24,25,25a-tetradecahydro-10H,19H-9,12-methanocyclopenta[18,19][1,10,3,6,12]dioxatriazacyclononadecino[11,12-b]quinazoline-10-carboxamide] | 0.1 to 0.5 nM
CC[C@@H]1C[C@]1(NC(=O)[C@@H]1C[C@@H]2CN1C(=O)[C@H](C1CCCC1)NC(=O)O[C@@H]1CCC[C@H]1CC/C=C/Cc1c(nc3ccccn3c1=O)O2)C(=O)NS(=O)(=O)C1CC1 [(3aR,7S,10S,12R,22E,25aS)-7-cyclopentyl-N-((1R,2R)-1-{[(cyclopropylsulfonyl)amino]carbonyl}-2-ethylcyclopropyl)-5,8,20-trioxo-1,2,3,3a,5,6,7,8,11,12,21,24,25,25a-tetradecahydro-10H,20H-9,12-methanocyclopenta[r]pyrido[1′,2′:1,2]pyrimido[4,5-k][1,10,3,6]dioxadiazacyclononadecine-10-carboxamide] | 0.1 to 0.5 nM
CC[C@@H]1C[C@]1(NC(=O)[C@@H]1C[C@@H]2CN1C(=O)[C@H](C1CCCC1)NC(=O)O[C@@H]1CCC[C@H]1CC/C=C/Cn1c(nc3c(OC)cccc3c1=O)O2)C(=O)NS(=O)(=O)C1CC1 [(3aR,7S,10S,12R,22E,25aS)-7-cyclopentyl-N-((1R,2R)-1-{[(cyclopropylsulfonyl)amino]carbonyl}-2-ethylcyclopropyl)-15-methoxy-5,8,19-trioxo-1,2,3,3a,5,6,7,8,11,12,21,24,25,25a-tetradecahydro-10H,19H-9,12-methanocyclopenta[18,19][1,10,3,6,12]dioxatriazacyclononadecino[11,12-b]quinazoline-10-carboxamide] | 0.1 to 0.5 nM
CC[C@@H]1C[C@]1(NC(=O)[C@@H]1C[C@@H]2CN1C(=O)[C@H](C1CCCC1)NC(=O)O[C@@H]1CCC[C@H]1CC/C=C/Cn1c(nc3cc(S(C)(=O)=O)ccc3c1=O)O2)C(=O)NS(=O)(=O)C1CC1 [(3aR,7S,10S,12R,22E,25aS)-7-cyclopentyl-N-((1R,2R)-1-{[(cyclopropylsulfonyl)amino]carbonyl}-2-ethylcyclopropyl)-16-(methylsulfonyl)-5,8,19-trioxo-1,2,3,3a,5,6,7,8,11,12,21,24,25,25a-tetradecahydro-10H,19H-9,12-methanocyclopenta[18,19][1,10,3,6,12]dioxatriazacyclononadecino[11,12-b]quinazoline-10-carboxamide] | < 0.1 nM
CC[C@@H]1C[C@]1(NC(=O)[C@@H]1C[C@@H]2CN1C(=O)[C@H](C1CCCC1)NC(=O)O[C@@H]1CCC[C@H]1CC/C=C/Cc1c(nc3cc(OC)ccn3c1=O)O2)C(=O)NS(=O)(=O)C1CC1 [(3aR,7S,10S,12R,22E,25aS)-7-cyclopentyl-N-((1R,2R)-1-{[(cyclopropylsulfonyl)amino]carbonyl}-2-ethylcyclopropyl)-16-methoxy-5,8,20-trioxo-1,2,3,3a,5,6,7,8,11,12,21,24,25,25a-tetradecahydro-10H,20H-9,12-methanocyclopenta[r]pyrido[1′,2′:1,2]pyrimido[4,5-k][1,10,3,6]dioxadiazacyclononadecine-10-carboxamide] | 0.1 to 0.5 nM
CC[C@@H]1C[C@]1(NC(=O)[C@@H]1C[C@@H]2CN1C(=O)[C@H](C1CCCC1)NC(=O)O[C@@H]1CCC[C@H]1CC/C=C/Cn1c(nc3cccc(OC)c3c1=O)O2)C(=O)NS(=O)(=O)C1CC1 [(3aR,7S,10S,12R,22E,25aS)-7-cyclopentyl-N-((1R,2R)-1-{[(cyclopropylsulfonyl)amino]carbonyl}-2-ethylcyclopropyl)-18-methoxy-5,8,19-trioxo-1,2,3,3a,5,6,7,8,11,12,21,24,25,25a-tetradecahydro-10H,19H-9,12-methanocyclopenta[18,19][1,10,3,6,12]dioxatriazacyclononadecino[11,12-b]quinazoline-10-carboxamide] | 0.1 to 0.5 nM
C=C[C@@H]1C[C@]1(NC(=O)[C@@H]1C[C@@H]2CN1C(=O)[C@H](C1CCCC1)NC(=O)O[C@@H]1CCC[C@H]1CC/C=C/Cn1c(nc3ccccc3c1=O)O2)C(=O)NS(=O)(=O)C1CC1 [(3aR,7S,10S,12R,22E,25aS)-7-cyclopentyl-N-((1R,2S)-1-{[(cyclopropylsulfonyl)amino]carbonyl}-2-vinylcyclopropyl)-5,8,19-trioxo-1,2,3,3a,5,6,7,8,11,12,21,24,25,25a-tetradecahydro-10H,19H-9,12-methanocyclopenta[18,19][1,10,3,6,12]dioxatriazacyclononadecino[11,12-b]quinazoline-10-carboxamide] | < 0.1 nM
C=C[C@@H]1C[C@]1(NC(=O)[C@@H]1C[C@@H]2CN1C(=O)[C@H](C1CCCC1)NC(=O)O[C@@H]1CCC[C@H]1CC/C=C/Cn1c(nc3cc(C(F)(F)F)ccc3c1=O)O2)C(=O)NS(=O)(=O)C1CC1 [(3aR,7S,10S,12R,22E,25aS)-7-cyclopentyl-N-((1R,2S)-1-{[(cyclopropylsulfonyl)amino]carbonyl}-2-vinylcyclopropyl)-5,8,19-trioxo-16-(trifluoromethyl)-1,2,3,3a,5,6,7,8,11,12,21,24,25,25a-tetradecahydro-10H,19H-9,12-methanocyclopenta[18,19][1,10,3,6,12]dioxatriazacyclononadecino[11,12-b]quinazoline-10-carboxamide] | < 0.1 nM
C=C[C@@H]1C[C@]1(NC(=O)[C@@H]1C[C@@H]2CN1C(=O)[C@H](C1CCCC1)NC(=O)O[C@@H]1CCC[C@H]1CC/C=C/Cn1c(nc3cc(-c4ccccc4)ccc3c1=O)O2)C(=O)NS(=O)(=O)C1CC1 [(3aR,7S,10S,12R,22E,25aS)-7-cyclopentyl-N-((1R,2S)-1-{[(cyclopropylsulfonyl)amino]carbonyl}-2-vinylcyclopropyl)-5,8,19-trioxo-16-phenyl-1,2,3,3a,5,6,7,8,11,12,21,24,25,25a-tetradecahydro-10H,19H-9,12-methanocyclopenta[18,19][1,10,3,6,12]dioxatriazacyclononadecino[11,12-b]quinazoline-10-carboxamide] | < 0.1 nM
